How the values were obtained:
[1] = target: mitochondrial RNA-polymerase (POLRMT) (Mus musculus, UniProt Q8BKF1); assay: Homogeneous TR-FRET assay for mitochondrial transcription activity; format: biochemical; settings: homogeneous TR-FRET assay according to Example 4; activity class
Summary of the method: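 TR-FRET read-out (340 nm excitation, 665 nm emission) of a 407 bp transcript captured by Eu-streptavidin/biotin donor and ATTO647N acceptor DNA probes after EDTA stop. Transcription ran 2 h at RT with 500 μM […], mouse POLRMT/TFAM/TFB2M and LSP-plasmid template, after 10 min compound preincubation (10 μM or dilution series).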

[2] = test system: mitochondrial transcription (7S RNA) in HeLa cells; assay: Quantitative real time-PCR assay of inhibition of mitochondrial transcription (cellular qPCR assay IMT); format: cell-based; settings: Homo sapiens, 4 h compound incubation, qRT-PCR according to Example 5, activity class
Protocol: Quantitative real-time PCR (qRT-PCR), based on the TagMan™ (Thermo Fisher Scientific, Waltham Mass.) technology, was carried out essentially as described in (Heid et al., 1996). HeLa cells were plated one day before compound treatment in RPMI medium supplemented with 10% Fetal Calf Serum and 2 mM L-glutamine. Cells were incubated with dilution series of compounds or vehicle (DMSO) for 4 h, prior to harvest and extraction of the RNA using the RNeasy Mini Kit (Qiagen, Hilden D), according to the manufacturer's instructions. RNA concentrations were measured spectroscopically, using a NanoDrop-2000 (Thermo Fisher Scientific, Waltham Mass.) and normalized prior to cDNA synthesis, using a ‘High-Capacity cDNA Reverse Transcription Kit’ (Thermo Fisher Scientific, Waltham Mass.). qRT-PCR was carried out using the ‘TaqMan Fast Advance Master Mix’ (Thermo Fisher Scientific, Waltham Mass.) on a 7500 Fast Real-Time PCR machine (Applied Biosystems, Foster City Calif.)
For these measurements, three genes were used to compare the effect of the scrutinized compounds in relation to their concentration. The POLRMT-gene was used to detect potential influences on nuclear transcription. Mitochondrial transcription in vivo was monitored by measurements 7S RNA. The TBP (TATA-box binding protein) gene was employed as the control (housekeeping gene) during qRT-PCR. The short-lived mitochondrial 7S RNA, which is not post-transcriptionally stabilized, allowed us to monitor rapid changes in mitochondrial transcription activity following compound addition. Biological triplicates were analyzed using the comparative CT Method (ΔΔCt) method (Bubner and Baldwin, 2004) and reported as Rq % values (Rq=Relative quantification=2-ΔΔCt).

Sequence of mitochondrial RNA-polymerase (POLRMT) (Q8BKF1 42-1207): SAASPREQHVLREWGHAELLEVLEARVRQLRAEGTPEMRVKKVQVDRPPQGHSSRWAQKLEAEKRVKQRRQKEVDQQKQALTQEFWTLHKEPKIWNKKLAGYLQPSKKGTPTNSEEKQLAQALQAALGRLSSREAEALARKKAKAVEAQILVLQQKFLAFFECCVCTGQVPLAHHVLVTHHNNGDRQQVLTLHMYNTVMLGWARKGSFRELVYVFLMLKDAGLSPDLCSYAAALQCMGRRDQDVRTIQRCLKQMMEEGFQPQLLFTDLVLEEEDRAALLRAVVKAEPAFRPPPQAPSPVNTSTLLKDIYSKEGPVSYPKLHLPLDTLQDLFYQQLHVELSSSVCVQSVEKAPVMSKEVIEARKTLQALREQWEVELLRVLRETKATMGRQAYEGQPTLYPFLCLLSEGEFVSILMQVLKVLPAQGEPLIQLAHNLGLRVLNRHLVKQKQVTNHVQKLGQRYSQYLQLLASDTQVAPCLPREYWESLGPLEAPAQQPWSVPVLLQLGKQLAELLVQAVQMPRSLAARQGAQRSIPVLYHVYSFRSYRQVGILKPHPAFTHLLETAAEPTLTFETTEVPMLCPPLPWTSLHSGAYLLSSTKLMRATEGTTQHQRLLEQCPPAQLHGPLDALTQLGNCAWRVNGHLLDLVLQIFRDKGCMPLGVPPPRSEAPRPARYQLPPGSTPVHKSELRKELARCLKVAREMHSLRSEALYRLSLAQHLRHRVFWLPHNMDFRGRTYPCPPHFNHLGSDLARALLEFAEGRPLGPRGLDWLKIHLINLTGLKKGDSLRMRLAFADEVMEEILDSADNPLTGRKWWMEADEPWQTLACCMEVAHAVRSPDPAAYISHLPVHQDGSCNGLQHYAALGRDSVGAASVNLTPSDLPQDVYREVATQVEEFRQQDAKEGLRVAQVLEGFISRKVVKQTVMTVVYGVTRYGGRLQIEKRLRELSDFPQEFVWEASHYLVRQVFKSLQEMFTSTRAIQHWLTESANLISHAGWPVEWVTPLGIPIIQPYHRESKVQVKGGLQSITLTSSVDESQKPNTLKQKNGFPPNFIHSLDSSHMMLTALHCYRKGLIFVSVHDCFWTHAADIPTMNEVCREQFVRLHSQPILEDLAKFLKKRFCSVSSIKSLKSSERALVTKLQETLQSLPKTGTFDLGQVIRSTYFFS

Structure (SMILES) | IC50 [1] [nM] | IC50 [2] [nM]
CCCCCCCOC(=O)[C@H]1CCCN(C(=O)[C@@H](C)Oc2ccc3c(-c4ccc(F)cc4Cl)cc(=O)oc3c2)C1 [Compound 120, heptyl (3S)-1-[(2R)-2-[4-(2-chloro-4-fluoro-phenyl)-2-oxo-chromen-7-yl]oxypropanoyl] piperidine-3-carboxylate] | 100 to 1000 | < 10
CC(C)NC(=O)C(C)(C)Oc1ccc2c(-c3ccccc3Cl)cc(=O)oc2c1 [Compound 114, 2-[4-(2-chlorophenyl)-2-oxo-chromen-7-yl]oxy-N-isopropyl-2-methyl-propanamide] | 100 to 1000 | 10 to 50
COC(=O)c1cccc(NC(=O)[C@@H](C)Oc2ccc3c(-c4ccc(F)cc4Cl)cc(=O)oc3c2)n1 [Compound 149, methyl 6-[[(2R)-2-[4-(2-chloro-4-fluoro-phenyl)-2-oxo-chromen-7-yl]oxypropanoyl]amino]pyridine-2-carboxylate] | 20 to 100 | 50 to 500
CCOC(=O)[C@H]1CCCN(C(=O)[C@@H](C)Oc2ccc3c(-c4ccc(F)cc4Cl)cc(=O)oc3c2)C1 [Compound 111, ethyl (3S)-1-[(2R)-2-[4-(2-chloro-4-fluoro-phenyl)-2-oxo-chromen-7-yl]oxypropanoyl] piperidine-3-carboxylate] | 20 to 100 | 50 to 500
C[C@@H](Oc1ccc2c(-c3ccccc3Cl)cc(=O)oc2n1)C(=O)N1CCC[C@H](C(=O)O)C1 [Compound 172, (3S)-1-[(2R)-2-[4-(2-chlorophenyl)-2-oxo-pyrano[2,3-b]pyridin-7-yl]oxypropanoyl]piperidine-3-carboxylic acid] | 20 to 100 | 50 to 500
Cc1ccsc1-c1cc(=O)oc2cc(O[C@H](C)C(=O)N3CCCCC3)ccc12 [Compound 177, 7-[(1R)-1-methyl-2-oxo-2-(1-piperidyl)ethoxy]-4-(3-methyl-2-thienyl)chromen-2-one] | 20 to 100 | < 10
CNC(=O)[C@H]1CCCN(C(=O)[C@@H](C)Oc2ccc3c(-c4ccc(F)cc4Cl)cc(=O)oc3c2)C1 [Compound 122] | 20 to 100 | < 10
Cc1ccccc1-c1cc(=O)oc2cc(OC(C)C(=O)N3CCC[C@H](C(=O)N(C)C)C3)ccc12 (stereo partly drawn) [Compound 84, (3S)-N,N-dimethyl-1-[2-[4-(o-tolyl)-2-oxo-chromen-7-yl]oxypropanoyl]piperidine-3-carboxamide] | 20 to 100 | 10 to 50

Second part, the compound after the results:

IC50 [1] [nM] | IC50 [2] [nM] | Structure (SMILES)
20 to 100 | < 10 | C[C@@H](Oc1ccc2c(-c3ccc(F)cc3Cl)cc(=O)oc2c1)C(=O)N1CCC[C@H](CC(=O)OC(C)(C)C)C1 [Compound 124, tert-butyl 2-[(3R)-1-[(2R)-2-[4-(2-chloro-4-fluoro-phenyl)-2-oxo-chromen-7-yl]oxypropanoyl]-3-piperidyl]acetate]
20 to 100 | 50 to 500 | CC(Oc1ccc2c(-c3ccccc3Cl)cc(=O)oc2n1)C(=O)N1CCC[C@H](C(=O)O)C1 (mixture of isomers) [Compound 170, rac-(3S)-1-[2-[4-(2-chlorophenyl)-2-oxo-pyrano[2,3-b]pyridin-7-yl]oxypropanoyl]piperidine-3-carboxylic acid]
20 to 100 | 50 to 500 | CC(C)OC(=O)[C@H]1CCCN(C(=O)[C@@H](C)Oc2ccc3c(-c4ccc(F)cc4Cl)cc(=O)oc3c2)C1 [Compound 117, isopropyl (3S)-1-[(2R)-2-[4-(2-chloro-4-fluoro-phenyl)-2-oxo-chromen-7-yl]oxypropanoyl] piperidine-3-carboxylate]
< 20 | < 10 | Cc1ccccc1-c1cc(=O)oc2cc(O[C@H](C)C(=O)N3CCC[C@H](C(=O)O)C3)ccc12 [Compound 27, (3S)-1-[(2R)-2-[4-(o-tolyl)-2-oxo-chromen-7-yl]oxypropanoyl]piperidine-3-carboxylic acid]
< 20 | < 10 | CNS(=O)(=O)C1CCCN(C(=O)C(C)Oc2ccc3c(-c4ccccc4C)cc(=O)oc3c2)C1 (centres unmarked) [Compound 18, N-methyl-1-[2-[4-(o-tolyl)-2-oxo-chromen-7-yl]oxypropanoyl]piperidine-3-sulfonamide]

Source: patent US11111238B2, “Coumarin derivatives, processes for their preparation and uses thereof for the treatment of cancer” (Lead Discovery Center GmbH, priority 2017, dated 2021)
